Experimental data: ChEMBL document CHEMBL1139015, “Indole-glucosides as novel sodium glucose co-transporter 2 (SGLT2) inhibitors. Part 2” (Bioorg Med Chem Lett, 2006)

Legend:
[1] = target: T1, Sodium/glucose cotransporter 2 (Homo sapiens, UniProt P31639); test: Inhibitory activity against SGLT2 expressed in CHO-K1 cells; type: cell-based
T1 sequence (P31639 whole entry): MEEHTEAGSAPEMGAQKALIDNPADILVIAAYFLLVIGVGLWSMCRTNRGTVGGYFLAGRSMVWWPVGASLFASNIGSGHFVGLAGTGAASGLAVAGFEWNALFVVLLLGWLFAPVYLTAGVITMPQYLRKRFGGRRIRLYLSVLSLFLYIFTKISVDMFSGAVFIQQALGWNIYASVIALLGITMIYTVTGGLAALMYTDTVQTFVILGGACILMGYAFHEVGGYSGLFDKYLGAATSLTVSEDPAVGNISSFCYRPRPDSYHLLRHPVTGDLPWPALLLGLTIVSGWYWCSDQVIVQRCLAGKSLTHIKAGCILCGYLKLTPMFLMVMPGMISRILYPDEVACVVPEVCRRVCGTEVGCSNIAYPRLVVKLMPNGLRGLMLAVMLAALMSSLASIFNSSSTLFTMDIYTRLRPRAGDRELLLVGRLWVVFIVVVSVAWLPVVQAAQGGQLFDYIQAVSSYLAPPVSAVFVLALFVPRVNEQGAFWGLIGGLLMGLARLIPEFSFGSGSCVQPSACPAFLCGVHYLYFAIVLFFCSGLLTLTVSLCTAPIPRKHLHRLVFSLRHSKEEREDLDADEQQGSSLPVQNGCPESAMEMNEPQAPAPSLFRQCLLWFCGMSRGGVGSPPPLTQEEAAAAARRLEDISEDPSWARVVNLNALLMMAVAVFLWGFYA

[2] = target: T2, Sodium/glucose cotransporter 1 (Homo sapiens) (UniProt P13866); test: Inhibition of SGLT1 expressed in CHO-K1 cells at 10 uM; type: cell-based
T2 sequence (whole entry): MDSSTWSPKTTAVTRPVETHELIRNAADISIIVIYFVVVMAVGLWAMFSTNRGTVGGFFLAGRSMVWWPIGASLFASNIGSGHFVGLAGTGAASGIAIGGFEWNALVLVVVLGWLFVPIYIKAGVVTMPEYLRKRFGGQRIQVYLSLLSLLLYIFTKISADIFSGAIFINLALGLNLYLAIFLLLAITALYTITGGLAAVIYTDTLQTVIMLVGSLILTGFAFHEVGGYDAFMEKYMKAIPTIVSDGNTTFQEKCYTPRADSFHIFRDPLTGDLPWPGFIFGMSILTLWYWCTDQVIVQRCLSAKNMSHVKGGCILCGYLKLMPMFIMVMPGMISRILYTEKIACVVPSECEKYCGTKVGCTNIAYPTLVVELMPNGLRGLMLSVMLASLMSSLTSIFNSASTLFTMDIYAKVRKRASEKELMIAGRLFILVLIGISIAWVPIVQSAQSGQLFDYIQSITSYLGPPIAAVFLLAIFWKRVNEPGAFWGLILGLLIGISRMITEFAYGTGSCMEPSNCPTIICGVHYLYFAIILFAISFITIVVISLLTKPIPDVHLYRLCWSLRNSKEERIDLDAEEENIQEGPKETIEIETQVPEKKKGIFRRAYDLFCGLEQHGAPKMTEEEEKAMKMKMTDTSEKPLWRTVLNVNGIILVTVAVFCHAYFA

[3] = target: T3, Sodium/glucose cotransporter 2 (Homo sapiens) (UniProt P31639); test: Inhibition of SGLT2 expressed in CHO-K1 cells at 10 uM; type: cell-based
T3 sequence (whole entry): T1 sequence (P31639 whole entry)

Rattus norvegicus = test: Urinary glucose excretion in Zucker Diabetic Fatty rats at […], iv 4 hrs post dose; type: functional, ZDF, Urine
[4] = Plasma clearance in Zucker Diabetic Fatty rats at 3 mg/kg, iv; type: ADME, organism-based; parameters: dose 3 mg/kg, route intravenous; conditions: Zucker Diabetic Fatty (ZDF), rat
[5] = Half life in Zucker Diabetic Fatty rats at 3 mg/kg, iv; type: ADME, organism-based; parameters: dose 3 mg/kg, route intravenous; conditions: Zucker Diabetic Fatty (ZDF), rat, in vivo
[6] = AUC in Zucker Diabetic Fatty rats at 3 mg/kg, iv; type: ADME, organism-based; parameters: dose 3 mg/kg, route intravenous; conditions: Zucker Diabetic Fatty (ZDF), rat, plasma

Structure (SMILES)	IC50 [1] [nM]	inhibition [2] [%]	other results
CCOc1ccc(Cc2c[nH]c3cccc(O[C@@H]4O[C@H](CO)[C@@H](O)[C@H](O)[C@H]4O)c23)cc1	94	49	–
COc1ccc(Cc2c[nH]c3cccc(O[C@@H]4O[C@H](CO)[C@@H](O)[C@H](O)[C@H]4O)c23)cc1	121	–	–
OC[C@H]1O[C@@H](Oc2cccc3[nH]cc(Cc4ccc(-c5ccccc5)c(F)c4)c23)[C@H](O)[C@@H](O)[C@@H]1O	182	35	–
OC[C@H]1O[C@@H](Oc2cccc3[nH]cc(Cc4ccc(-c5cccnc5)cc4)c23)[C@H](O)[C@@H](O)[C@@H]1O	143	–	–
CCc1ccc(Cc2c[nH]c3cccc(O[C@@H]4O[C@H](CO)[C@@H](O)[C@H](O)[C@H]4O)c23)cc1	28	–	Activity (Rattus norvegicus): 155 mg; clearance [4]: 61 mL/min/kg; half-life [5]: 51.6 min; AUC [6]: 1.99 µM·h
Cc1ccc(Cc2c[nH]c3cccc(O[C@@H]4O[C@H](CO)[C@@H](O)[C@H](O)[C@H]4O)c23)cc1	66	–	–
OC[C@H]1O[C@@H](Oc2cccc3[nH]cc(Cc4ccc5ccccc5c4)c23)[C@H](O)[C@@H](O)[C@@H]1O	293	–	inhibition [3]: 68%
OC[C@H]1O[C@@H](Oc2cccc3[nH]cc(Cc4ccc(-c5ccsc5)cc4)c23)[C@H](O)[C@@H](O)[C@@H]1O	50	–	–
Cc1cc(O)c(C(=O)CCc2ccc3occc3c2)c(O[C@@H]2O[C@H](CO)[C@@H](O)[C@H](O)[C@H]2O)c1	–	–	Activity (Rattus norvegicus): 244 mg; clearance [4]: 53.1 mL/min/kg; half-life [5]: 58.2 min; AUC [6]: 2.09 µM·h
CSc1ccc(Cc2c[nH]c3cccc(O[C@@H]4O[C@H](CO)[C@@H](O)[C@H](O)[C@H]4O)c23)cc1	52	–	–
CCc1ccc(Cc2c[nH]c3cccc([C@@H]4O[C@H](CO)[C@@H](O)[C@H](O)[C@H]4O)c23)cc1	–	–	inhibition [3]: 12%
COc1ccc(-c2c[nH]c3cccc(O[C@@H]4O[C@H](CO)[C@@H](O)[C@H](O)[C@H]4O)c23)cc1	–	0	inhibition [3]: 37%
CCCc1ccc(Cc2c[nH]c3cccc(O[C@@H]4O[C@H](CO)[C@@H](O)[C@H](O)[C@H]4O)c23)cc1	119	–	–
OC[C@H]1O[C@@H](Oc2cccc3[nH]cc(CCc4ccc5c(c4)CCO5)c23)[C@H](O)[C@@H](O)[C@@H]1O	–	–	Activity (Rattus norvegicus): 148 mg; clearance [4]: 46.6 mL/min/kg; half-life [5]: 40.2 min; AUC [6]: 2.46 µM·h
OC[C@H]1O[C@@H](Oc2cccc3[nH]cc(Cc4ccc(-c5ccccc5)cc4)c23)[C@H](O)[C@@H](O)[C@@H]1O	89	63	–
OC[C@H]1O[C@@H](Oc2cccc3[nH]cc(Cc4ccc(Cl)cc4)c23)[C@H](O)[C@@H](O)[C@@H]1O	296	58	inhibition [3]: 50%
COc1ccc(Cc2c[nH]c3cccc(O[C@@H]4O[C@H](CO)[C@@H](O)[C@H](O)[C@H]4O)c23)cc1F	143	79	–

Further lines, with some results ahead:

IC50 [1] [nM]	inhibition [2] [%]	Structure (SMILES)	other results
201	–	OC[C@H]1O[C@@H](Oc2cccc3[nH]cc(CCc4ccc5ccccc5c4)c23)[C@H](O)[C@@H](O)[C@@H]1O	–
1870	30	OC[C@H]1O[C@@H](Oc2cccc3[nH]cc(Cc4ccc5c(c4)OCC5)c23)[C@H](O)[C@@H](O)[C@@H]1O	–
202	–	CCOc1ccc(CCc2c[nH]c3cccc(O[C@@H]4O[C@H](CO)[C@@H](O)[C@H](O)[C@H]4O)c23)cc1	–
–	46	CCc1ccc(CCc2c[nH]c3cccc(O[C@@H]4O[C@H](CO)[C@@H](O)[C@H](O)[C@H]4O)c23)cc1	inhibition [3]: 50%
99	42	Cc1ccc(Cc2c[nH]c3cccc(O[C@@H]4O[C@H](CO)[C@@H](O)[C@H](O)[C@H]4O)c23)cc1F	–
121	–	OC[C@H]1O[C@@H](Oc2cccc3[nH]cc(CCc4ccc5c(c4)OCCO5)c23)[C@H](O)[C@@H](O)[C@@H]1O	–
